Source: the kinase profiling compilation of Christmann-Franck et al. (2016)

Experiments:
Assay in all cases: radiometric filter-binding kinase assay, Kinase HotSpot
Settings in all cases: compound 0.5 µM; ATP 10 µM
[1] = molecular target: ALK (human) (UniProt Q9UM73)
[2] = molecular target: AURKB (human) (UniProt Q96GD4)
[3] = molecular target: AXL (human) (UniProt P30530)
[4] = molecular target: BRAF (human) (UniProt P15056)
[5] = molecular target: CAMK2A (human) (UniProt Q9UQM7)
[6] = molecular target: CDC42BPB (human) (UniProt Q9Y5S2)
[7] = molecular target: CDK7 CCNH MNAT1 (human) (UniProt P50613+P51948+P51946)
CDK7 CCNH MNAT1 (human), sequence (P50613 whole entry, looked up): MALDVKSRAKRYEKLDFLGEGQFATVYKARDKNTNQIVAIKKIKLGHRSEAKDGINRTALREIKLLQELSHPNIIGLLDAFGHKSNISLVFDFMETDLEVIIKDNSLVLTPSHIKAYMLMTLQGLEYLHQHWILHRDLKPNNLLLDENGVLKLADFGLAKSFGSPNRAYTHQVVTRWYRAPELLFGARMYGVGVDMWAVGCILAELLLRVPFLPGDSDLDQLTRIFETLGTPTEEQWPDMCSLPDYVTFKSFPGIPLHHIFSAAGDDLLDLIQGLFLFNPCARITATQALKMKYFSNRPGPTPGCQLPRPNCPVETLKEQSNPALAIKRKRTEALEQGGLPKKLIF
CDK7 CCNH MNAT1 (human), sequence (P51946 whole entry, looked up): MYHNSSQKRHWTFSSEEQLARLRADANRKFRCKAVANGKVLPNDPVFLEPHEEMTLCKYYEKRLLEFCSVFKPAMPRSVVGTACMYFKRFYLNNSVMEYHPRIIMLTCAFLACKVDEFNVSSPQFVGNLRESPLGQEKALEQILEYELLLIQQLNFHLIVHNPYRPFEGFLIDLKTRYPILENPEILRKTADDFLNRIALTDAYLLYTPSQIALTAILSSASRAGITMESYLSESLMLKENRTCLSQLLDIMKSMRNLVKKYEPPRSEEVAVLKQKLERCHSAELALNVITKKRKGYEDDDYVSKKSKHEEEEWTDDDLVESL
CDK7 CCNH MNAT1 (human), sequence (P51948 whole entry, looked up): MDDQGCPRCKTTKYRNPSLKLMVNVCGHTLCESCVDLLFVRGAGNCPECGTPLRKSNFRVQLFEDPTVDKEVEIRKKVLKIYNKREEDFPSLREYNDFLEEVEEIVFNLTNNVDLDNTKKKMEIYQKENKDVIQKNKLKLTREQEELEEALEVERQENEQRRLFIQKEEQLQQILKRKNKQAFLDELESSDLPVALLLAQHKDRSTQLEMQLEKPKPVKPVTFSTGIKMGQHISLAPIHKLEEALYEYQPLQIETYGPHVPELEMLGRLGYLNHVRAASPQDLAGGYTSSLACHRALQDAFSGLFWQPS

[8] = molecular target: CDK9 CCNK (human) (UniProt O75909+P50750)
[9] = molecular target: CLK1 (human) (UniProt P49759)
[10] = molecular target: CLK4 (human) (UniProt Q9HAZ1)
CLK4 (human), sequence (Q9HAZ1 whole entry, looked up): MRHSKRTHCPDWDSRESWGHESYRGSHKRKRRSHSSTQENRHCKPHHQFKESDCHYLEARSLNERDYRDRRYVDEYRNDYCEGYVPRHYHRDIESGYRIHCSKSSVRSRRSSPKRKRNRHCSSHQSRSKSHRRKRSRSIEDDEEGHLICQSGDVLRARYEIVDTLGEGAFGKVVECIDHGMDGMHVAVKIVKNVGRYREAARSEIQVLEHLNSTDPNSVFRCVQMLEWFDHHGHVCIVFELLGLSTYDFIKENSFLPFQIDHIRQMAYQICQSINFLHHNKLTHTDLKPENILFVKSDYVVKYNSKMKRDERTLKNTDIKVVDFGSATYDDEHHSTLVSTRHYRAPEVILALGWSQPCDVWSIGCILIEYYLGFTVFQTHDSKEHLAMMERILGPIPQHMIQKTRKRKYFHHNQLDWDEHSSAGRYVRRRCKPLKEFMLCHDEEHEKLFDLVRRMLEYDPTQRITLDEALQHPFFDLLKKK

[11] = molecular target: DSTYK (human) (UniProt Q6XUX3)
[12] = molecular target: DYRK2 (human) (UniProt Q92630)
[13] = molecular target: EGFR (human) (UniProt P00533)
[14] = molecular target: EPHA4 (human) (UniProt P54764)
[15] = molecular target: GSK3A (human) (UniProt P49840)
[16] = molecular target: IGF1R (human) (UniProt P08069)
[17] = molecular target: LCK (human) (UniProt P06239)
[18] = molecular target: MAPK3 (human) (UniProt P27361)
[19] = molecular target: MELK (human) (UniProt Q14680)
[20] = molecular target: MET (human) (UniProt P08581)
[21] = molecular target: MST1R (human) (UniProt Q04912)
[22] = molecular target: NTRK2 (human) (UniProt Q16620)
[23] = molecular target: PAK1 (human) (UniProt Q13153)
[24] = molecular target: PAK7 (human) (UniProt Q9P286)
[25] = molecular target: PASK (human) (UniProt Q96RG2)
[26] = molecular target: PIM2 (human) (UniProt Q9P1W9)
[27] = molecular target: PIM3 (human) (UniProt Q86V86)
[28] = molecular target: PRKACA (human) (UniProt P17612)
[29] = molecular target: RPS6KB1 (human) (UniProt P23443)
RPS6KB1 (human), sequence (P23443 whole entry, looked up): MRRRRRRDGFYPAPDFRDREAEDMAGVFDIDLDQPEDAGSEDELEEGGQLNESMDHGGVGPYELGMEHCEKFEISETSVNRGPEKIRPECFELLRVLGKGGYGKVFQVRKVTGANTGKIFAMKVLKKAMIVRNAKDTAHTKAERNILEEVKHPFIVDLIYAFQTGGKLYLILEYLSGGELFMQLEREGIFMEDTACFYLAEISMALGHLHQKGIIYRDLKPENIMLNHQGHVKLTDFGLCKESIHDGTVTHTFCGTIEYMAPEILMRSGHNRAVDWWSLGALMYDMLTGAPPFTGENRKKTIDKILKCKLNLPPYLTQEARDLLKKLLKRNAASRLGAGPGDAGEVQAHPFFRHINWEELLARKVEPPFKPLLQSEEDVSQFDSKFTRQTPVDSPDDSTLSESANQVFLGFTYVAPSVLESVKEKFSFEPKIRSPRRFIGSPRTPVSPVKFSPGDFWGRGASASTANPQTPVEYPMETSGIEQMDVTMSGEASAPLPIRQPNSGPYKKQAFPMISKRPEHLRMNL

[30] = molecular target: SLK (human) (UniProt Q9H2G2)
[31] = molecular target: STK16 (human) (UniProt O75716)
[32] = molecular target: STK33 (human) (UniProt Q9BYT3)
[33] = molecular target: TGFBR2 (human) (UniProt P37173)
TGFBR2 (human), sequence (P37173 whole entry, looked up): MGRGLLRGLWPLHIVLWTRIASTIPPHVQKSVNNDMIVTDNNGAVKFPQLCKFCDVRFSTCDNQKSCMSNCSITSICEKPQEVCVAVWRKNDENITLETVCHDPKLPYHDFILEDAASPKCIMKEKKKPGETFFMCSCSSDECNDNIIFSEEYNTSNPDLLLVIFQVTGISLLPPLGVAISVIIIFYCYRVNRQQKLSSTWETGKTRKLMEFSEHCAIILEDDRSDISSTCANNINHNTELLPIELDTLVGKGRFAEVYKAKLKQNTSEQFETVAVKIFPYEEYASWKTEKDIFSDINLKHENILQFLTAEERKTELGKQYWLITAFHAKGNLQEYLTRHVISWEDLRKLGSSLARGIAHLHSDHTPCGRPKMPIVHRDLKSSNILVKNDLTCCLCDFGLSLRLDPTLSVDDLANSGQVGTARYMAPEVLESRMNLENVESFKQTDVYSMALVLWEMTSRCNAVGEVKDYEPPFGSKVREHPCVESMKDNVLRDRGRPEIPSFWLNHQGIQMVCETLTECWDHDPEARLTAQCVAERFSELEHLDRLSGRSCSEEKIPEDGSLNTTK

[34] = molecular target: WNK2 (human) (UniProt Q9Y3S1)
WNK2 (human), sequence (Q9Y3S1 whole entry, looked up): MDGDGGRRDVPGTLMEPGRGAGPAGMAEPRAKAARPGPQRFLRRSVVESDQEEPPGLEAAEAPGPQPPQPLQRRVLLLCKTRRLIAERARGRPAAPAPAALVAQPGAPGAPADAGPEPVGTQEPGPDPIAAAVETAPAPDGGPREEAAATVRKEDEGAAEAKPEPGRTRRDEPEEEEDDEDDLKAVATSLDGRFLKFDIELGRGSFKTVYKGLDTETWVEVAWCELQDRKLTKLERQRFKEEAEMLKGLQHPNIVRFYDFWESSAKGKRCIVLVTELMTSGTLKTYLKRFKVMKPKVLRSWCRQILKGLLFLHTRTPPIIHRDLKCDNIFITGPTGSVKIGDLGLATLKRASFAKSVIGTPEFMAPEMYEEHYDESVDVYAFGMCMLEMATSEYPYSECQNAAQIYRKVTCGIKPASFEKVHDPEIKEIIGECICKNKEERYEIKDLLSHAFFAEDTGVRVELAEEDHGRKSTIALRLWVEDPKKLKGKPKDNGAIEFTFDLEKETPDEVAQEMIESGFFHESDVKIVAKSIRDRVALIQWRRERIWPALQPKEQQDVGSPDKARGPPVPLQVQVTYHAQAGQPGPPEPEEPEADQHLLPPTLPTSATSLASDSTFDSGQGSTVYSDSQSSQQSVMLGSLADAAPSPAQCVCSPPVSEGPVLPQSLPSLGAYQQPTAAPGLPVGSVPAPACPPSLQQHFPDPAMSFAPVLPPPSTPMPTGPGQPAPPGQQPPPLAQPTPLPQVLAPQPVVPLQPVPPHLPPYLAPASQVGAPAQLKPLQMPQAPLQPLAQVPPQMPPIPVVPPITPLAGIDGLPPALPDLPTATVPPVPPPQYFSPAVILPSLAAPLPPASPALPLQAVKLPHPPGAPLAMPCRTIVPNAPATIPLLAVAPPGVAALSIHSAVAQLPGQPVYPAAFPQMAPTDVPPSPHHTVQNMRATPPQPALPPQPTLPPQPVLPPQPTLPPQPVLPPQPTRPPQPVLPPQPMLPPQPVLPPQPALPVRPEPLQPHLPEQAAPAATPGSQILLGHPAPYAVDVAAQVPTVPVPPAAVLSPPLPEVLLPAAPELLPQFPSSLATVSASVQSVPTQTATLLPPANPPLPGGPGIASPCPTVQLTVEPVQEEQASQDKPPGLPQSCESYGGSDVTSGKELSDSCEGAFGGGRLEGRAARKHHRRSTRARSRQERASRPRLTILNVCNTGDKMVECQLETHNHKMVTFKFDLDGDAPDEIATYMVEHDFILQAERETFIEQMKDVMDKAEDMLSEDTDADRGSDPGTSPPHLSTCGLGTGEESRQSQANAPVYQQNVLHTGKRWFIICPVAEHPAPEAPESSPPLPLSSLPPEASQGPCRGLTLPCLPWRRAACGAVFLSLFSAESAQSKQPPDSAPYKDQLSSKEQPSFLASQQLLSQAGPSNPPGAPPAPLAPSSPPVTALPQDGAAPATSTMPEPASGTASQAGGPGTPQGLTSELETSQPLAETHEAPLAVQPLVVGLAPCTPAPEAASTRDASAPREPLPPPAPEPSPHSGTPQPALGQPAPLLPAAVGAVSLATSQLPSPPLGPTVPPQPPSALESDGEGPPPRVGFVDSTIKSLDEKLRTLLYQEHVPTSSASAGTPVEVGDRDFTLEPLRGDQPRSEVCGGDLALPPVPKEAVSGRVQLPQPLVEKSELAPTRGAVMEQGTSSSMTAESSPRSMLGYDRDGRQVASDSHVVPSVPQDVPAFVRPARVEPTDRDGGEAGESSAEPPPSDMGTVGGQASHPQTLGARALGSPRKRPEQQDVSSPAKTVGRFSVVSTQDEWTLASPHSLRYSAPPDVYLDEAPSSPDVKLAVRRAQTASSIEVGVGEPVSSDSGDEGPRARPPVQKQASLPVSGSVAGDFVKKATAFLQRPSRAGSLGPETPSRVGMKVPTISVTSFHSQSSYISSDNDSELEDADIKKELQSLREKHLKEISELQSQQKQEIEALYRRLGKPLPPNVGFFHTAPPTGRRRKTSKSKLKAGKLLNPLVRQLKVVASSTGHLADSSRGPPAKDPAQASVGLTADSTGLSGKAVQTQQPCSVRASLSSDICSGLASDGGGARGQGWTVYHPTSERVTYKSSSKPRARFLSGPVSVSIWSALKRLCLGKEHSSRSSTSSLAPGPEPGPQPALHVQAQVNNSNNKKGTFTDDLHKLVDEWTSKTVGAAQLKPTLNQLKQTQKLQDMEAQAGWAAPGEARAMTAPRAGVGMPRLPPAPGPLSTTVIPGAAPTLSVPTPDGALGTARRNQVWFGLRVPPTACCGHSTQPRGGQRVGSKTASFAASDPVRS

CCn1cnc2c(Nc3cccc(Cl)c3)nc(N[C@@H]3CCCC[C@@H]3N)nc21
residual activity [1]: 92.3% | residual activity [2]: 98.8% | residual activity [3]: 98.7% | residual activity [4]: 93% | residual activity [5]: 96.5% | residual activity [6]: 97.7% | residual activity [7]: 58.4% | residual activity [8]: 46.9% | residual activity [9]: 89.3% | residual activity [10]: 49.9% | residual activity [11]: 97.8% | residual activity [12]: 107% | residual activity [13]: 98.1% | residual activity [14]: 78.5% | residual activity [15]: 103% | residual activity [16]: 51.8% | residual activity [17]: 89.5% | residual activity [18]: 108% | residual activity [19]: 77% | residual activity [20]: 102% | residual activity [21]: 99.6% | residual activity [22]: 55.3% | residual activity [23]: 88.8% | residual activity [24]: 64.7% | residual activity [25]: 88% | residual activity [26]: 111% | residual activity [27]: 34.7% | residual activity [28]: 102% | residual activity [29]: 97.3% | residual activity [30]: 71.4% | residual activity [31]: 101% | residual activity [32]: 88.9% | residual activity [33]: 91.2% | residual activity [34]: 94.1%

Cn1cnc2cc3c(Nc4cccc(Br)c4)ncnc3cc21
residual activity [1]: 92.4% | residual activity [2]: 78.2% | residual activity [3]: 101% | residual activity [4]: 94.2% | residual activity [5]: 102% | residual activity [6]: 104% | residual activity [7]: 99.5% | residual activity [8]: 100% | residual activity [9]: 102% | residual activity [10]: 88.5% | residual activity [11]: 97.5% | residual activity [12]: 95.5% | residual activity [14]: 80.7% | residual activity [15]: 100% | residual activity [16]: 102% | residual activity [17]: 47.7% | residual activity [18]: 109% | residual activity [19]: 89% | residual activity [20]: 101% | residual activity [21]: 96.5% | residual activity [22]: 98.9% | residual activity [23]: 91.4% | residual activity [24]: 86.1% | residual activity [25]: 89.8% | residual activity [26]: 113% | residual activity [27]: 104% | residual activity [28]: 105% | residual activity [29]: 100% | residual activity [30]: 67.8% | residual activity [31]: 96.3% | residual activity [32]: 99.3% | residual activity [33]: 98.9% | residual activity [34]: 89.7%

O=C1NC(=O)C(c2c[nH]c3ccccc23)=C1c1c[nH]c2ccccc12
residual activity [1]: 95.7% | residual activity [2]: 89.3% | residual activity [3]: 103% | residual activity [4]: 101% | residual activity [5]: 85.3% | residual activity [6]: 99% | residual activity [7]: 94.4% | residual activity [8]: 80% | residual activity [9]: 111% | residual activity [10]: 76.1% | residual activity [11]: 99.6% | residual activity [12]: 97.7% | residual activity [14]: 87.6% | residual activity [15]: 27.7% | residual activity [16]: 80% | residual activity [17]: 85.1% | residual activity [18]: 105% | residual activity [19]: 82% | residual activity [21]: 93.1% | residual activity [22]: 90.7% | residual activity [23]: 83.5% | residual activity [24]: 104% | residual activity [25]: 90.8% | residual activity [26]: 105% | residual activity [27]: 32.7% | residual activity [28]: 101% | residual activity [29]: 75.6% | residual activity [30]: 45.4% | residual activity [31]: 94.2% | residual activity [32]: 97.7% | residual activity [33]: 95.5% | residual activity [34]: 92.7%

Cn1sc(=O)n(Cc2ccccc2)c1=O
residual activity [1]: 94.1% | residual activity [2]: 102% | residual activity [3]: 96.9% | residual activity [4]: 98.1% | residual activity [5]: 106% | residual activity [6]: 96.4% | residual activity [7]: 96.8% | residual activity [8]: 97.2% | residual activity [9]: 112% | residual activity [10]: 99.1% | residual activity [11]: 92.9% | residual activity [12]: 104% | residual activity [13]: 105% | residual activity [14]: 110% | residual activity [15]: 94.5% | residual activity [16]: 97.1% | residual activity [17]: 103% | residual activity [18]: 90.4% | residual activity [19]: 99.3% | residual activity [20]: 64.2% | residual activity [21]: 101% | residual activity [23]: 94.1% | residual activity [24]: 81.1% | residual activity [25]: 101% | residual activity [26]: 107% | residual activity [27]: 120% | residual activity [28]: 105% | residual activity [29]: 98% | residual activity [30]: 84.7% | residual activity [31]: 105% | residual activity [32]: 101% | residual activity [33]: 123% | residual activity [34]: 99.1%

CC(C)[C@H](CO)Nc1nc(Nc2cc(N)cc(Cl)c2)c2ncn(C(C)C)c2n1
residual activity [1]: 79.6% | residual activity [2]: 87.8% | residual activity [3]: 93.1% | residual activity [4]: 97.5% | residual activity [5]: 83.9% | residual activity [6]: 98.4% | residual activity [7]: 54.7% | residual activity [9]: 51.9% | residual activity [10]: 16.5% | residual activity [11]: 93.1% | residual activity [12]: 93.2% | residual activity [13]: 93.9% | residual activity [14]: 61.4% | residual activity [15]: 101% | residual activity [16]: 73% | residual activity [17]: 70.2% | residual activity [18]: 106% | residual activity [19]: 51.5% | residual activity [20]: 109% | residual activity [21]: 122% | residual activity [22]: 3.04% | residual activity [23]: 81.8% | residual activity [24]: 44.3% | residual activity [25]: 106% | residual activity [26]: 113% | residual activity [27]: 93% | residual activity [28]: 101% | residual activity [29]: 95.5% | residual activity [30]: 39.8% | residual activity [31]: 74% | residual activity [32]: 56.2% | residual activity [33]: 93.5% | residual activity [34]: 112%

COc1ccc(CNC(=O)Nc2ncc([N+](=O)[O-])s2)cc1
residual activity [1]: 100% | residual activity [2]: 97.1% | residual activity [3]: 92% | residual activity [4]: 93.4% | residual activity [5]: 98.8% | residual activity [6]: 93.5% | residual activity [7]: 94.8% | residual activity [8]: 82.8% | residual activity [9]: 106% | residual activity [10]: 92.8% | residual activity [11]: 96.2% | residual activity [12]: 103% | residual activity [14]: 101% | residual activity [15]: 13.5% | residual activity [16]: 101% | residual activity [17]: 101% | residual activity [18]: 103% | residual activity [20]: 85.5% | residual activity [21]: 98.4% | residual activity [22]: 85.6% | residual activity [23]: 94.2% | residual activity [24]: 95.4% | residual activity [25]: 106% | residual activity [26]: 94.5% | residual activity [27]: 108% | residual activity [28]: 96.9% | residual activity [29]: 85.4% | residual activity [30]: 88.9% | residual activity [31]: 99.9% | residual activity [32]: 100% | residual activity [33]: 117% | residual activity [34]: 104%
